The NIST ThermoML archive (doi:10.1016/j.jct.2016.03.026)
Numbers after ± are expanded uncertainties.

Test: xn = mol fraction of the nth substance listed
Conditions: 313.15 K, Fluid (supercritical or subcritical phases), Vibrating tube method, x1 = 0.97

O=C=O [carbon dioxide] + CO
Conditions | mass density [kg/m3]
11150 kPa | 721.68 ± 0.83
11175 kPa | 722.44 ± 0.83
11200 kPa | 723.12 ± 0.83
11225 kPa | 723.83 ± 0.83
11250 kPa | 724.5 ± 0.83
11275 kPa | 725.17 ± 0.83
11300 kPa | 725.87 ± 0.83
11325 kPa | 726.55 ± 0.83
11350 kPa | 727.24 ± 0.83
11375 kPa | 727.87 ± 0.83
11400 kPa | 728.58 ± 0.83
11425 kPa | 729.26 ± 0.83
11450 kPa | 729.89 ± 0.83
11475 kPa | 730.56 ± 0.83
11500 kPa | 731.23 ± 0.83
11525 kPa | 731.88 ± 0.83
11550 kPa | 732.54 ± 0.83
11575 kPa | 733.12 ± 0.83
11600 kPa | 733.75 ± 0.83
11625 kPa | 734.36 ± 0.83
11650 kPa | 734.97 ± 0.83
11675 kPa | 735.62 ± 0.83
11700 kPa | 736.24 ± 0.83
11725 kPa | 736.79 ± 0.83
11750 kPa | 737.41 ± 0.83
11775 kPa | 738.01 ± 0.83
11800 kPa | 738.59 ± 0.83
11825 kPa | 739.2 ± 0.83
11850 kPa | 739.81 ± 0.83
11875 kPa | 740.42 ± 0.83
11900 kPa | 741.01 ± 0.83
11925 kPa | 741.62 ± 0.83
11950 kPa | 742.23 ± 0.83
11975 kPa | 742.81 ± 0.83
12000 kPa | 743.38 ± 0.83
12025 kPa | 743.98 ± 0.83
12050 kPa | 744.51 ± 0.83
12075 kPa | 745.12 ± 0.83
12100 kPa | 745.65 ± 0.83
12125 kPa | 746.23 ± 0.83
12150 kPa | 746.78 ± 0.83
12175 kPa | 747.4 ± 0.83
12200 kPa | 747.95 ± 0.83
12225 kPa | 748.48 ± 0.83
12250 kPa | 749.04 ± 0.83
12275 kPa | 749.5 ± 0.83
12300 kPa | 750.05 ± 0.83
12325 kPa | 750.56 ± 0.83
12350 kPa | 751.14 ± 0.83
12375 kPa | 751.63 ± 0.83
12400 kPa | 752.14 ± 0.83
12425 kPa | 752.63 ± 0.83
12450 kPa | 753.18 ± 0.83
12475 kPa | 753.64 ± 0.83
12500 kPa | 754.12 ± 0.83
12525 kPa | 754.59 ± 0.83
12550 kPa | 755.09 ± 0.83
12575 kPa | 755.53 ± 0.83
12600 kPa | 756 ± 0.83
12625 kPa | 756.47 ± 0.83
12650 kPa | 756.92 ± 0.83
12675 kPa | 757.39 ± 0.83
12700 kPa | 757.86 ± 0.83
12725 kPa | 758.3 ± 0.83
12750 kPa | 758.68 ± 0.83
12775 kPa | 759.12 ± 0.83
12800 kPa | 759.54 ± 0.83
12825 kPa | 759.98 ± 0.83
12850 kPa | 760.36 ± 0.83
12875 kPa | 760.82 ± 0.83
12900 kPa | 761.3 ± 0.83
12925 kPa | 761.76 ± 0.83
12950 kPa | 762.23 ± 0.83
12975 kPa | 762.72 ± 0.83
13000 kPa | 763.15 ± 0.83
13025 kPa | 763.58 ± 0.83
13050 kPa | 764.07 ± 0.83
13075 kPa | 764.54 ± 0.83
13100 kPa | 764.93 ± 0.83
13125 kPa | 765.37 ± 0.83
13150 kPa | 765.86 ± 0.83
13175 kPa | 766.29 ± 0.83
13200 kPa | 766.75 ± 0.83
13225 kPa | 767.22 ± 0.83
13250 kPa | 767.6 ± 0.83
13275 kPa | 768.04 ± 0.83
13300 kPa | 768.47 ± 0.83
13325 kPa | 768.93 ± 0.83
13350 kPa | 769.37 ± 0.83
13375 kPa | 769.83 ± 0.83
13400 kPa | 770.23 ± 0.83
13425 kPa | 770.69 ± 0.83
13450 kPa | 771.07 ± 0.83
13475 kPa | 771.5 ± 0.83
13500 kPa | 771.93 ± 0.83
13525 kPa | 772.34 ± 0.83
13550 kPa | 772.7 ± 0.83
13575 kPa | 773.15 ± 0.83
13600 kPa | 773.57 ± 0.83
13625 kPa | 773.92 ± 0.83
13650 kPa | 774.36 ± 0.83
13675 kPa | 774.79 ± 0.83
13700 kPa | 775.16 ± 0.83
13725 kPa | 775.57 ± 0.83
13750 kPa | 776 ± 0.83
13775 kPa | 776.36 ± 0.83
13800 kPa | 776.72 ± 0.83
13825 kPa | 777.12 ± 0.83
13850 kPa | 777.52 ± 0.83
13875 kPa | 777.93 ± 0.83
13900 kPa | 778.33 ± 0.83
13925 kPa | 778.72 ± 0.83
13950 kPa | 779.11 ± 0.83
13975 kPa | 779.47 ± 0.83
14000 kPa | 779.85 ± 0.83
14025 kPa | 780.28 ± 0.83
14050 kPa | 780.67 ± 0.83
14075 kPa | 781.06 ± 0.83
14100 kPa | 781.44 ± 0.83
14125 kPa | 781.8 ± 0.83
14150 kPa | 782.18 ± 0.83
14175 kPa | 782.55 ± 0.83
14200 kPa | 782.93 ± 0.83
14225 kPa | 783.28 ± 0.83
14250 kPa | 783.65 ± 0.83
14275 kPa | 784.01 ± 0.83
14300 kPa | 784.39 ± 0.83
14325 kPa | 784.77 ± 0.83
14350 kPa | 785.15 ± 0.83
14375 kPa | 785.52 ± 0.83
14400 kPa | 785.88 ± 0.83
14425 kPa | 786.27 ± 0.83
14450 kPa | 786.66 ± 0.83
14475 kPa | 787.01 ± 0.83
14500 kPa | 787.34 ± 0.83
14525 kPa | 787.73 ± 0.83
14550 kPa | 788.05 ± 0.83
14575 kPa | 788.43 ± 0.83
14600 kPa | 788.78 ± 0.83
14625 kPa | 789.1 ± 0.83
14650 kPa | 789.51 ± 0.83
14675 kPa | 789.86 ± 0.83
14700 kPa | 790.23 ± 0.83
14725 kPa | 790.55 ± 0.83
14750 kPa | 790.91 ± 0.83
14775 kPa | 791.25 ± 0.83
14800 kPa | 791.65 ± 0.83
14825 kPa | 791.96 ± 0.83
14850 kPa | 792.31 ± 0.83
14875 kPa | 792.64 ± 0.83
14900 kPa | 793.03 ± 0.83
14925 kPa | 793.37 ± 0.83
14950 kPa | 793.74 ± 0.83
14975 kPa | 794.09 ± 0.83
15000 kPa | 794.4 ± 0.83
15025 kPa | 794.78 ± 0.83
15050 kPa | 795.16 ± 0.83
15075 kPa | 795.5 ± 0.83
15100 kPa | 795.8 ± 0.83
15125 kPa | 796.2 ± 0.83
15150 kPa | 796.56 ± 0.83
15175 kPa | 796.89 ± 0.83
15200 kPa | 797.19 ± 0.83
15225 kPa | 797.52 ± 0.83
15250 kPa | 797.89 ± 0.83
15275 kPa | 798.26 ± 0.83
15300 kPa | 798.53 ± 0.83
15325 kPa | 798.91 ± 0.83
15350 kPa | 799.22 ± 0.83
15375 kPa | 799.54 ± 0.83
15400 kPa | 799.88 ± 0.83
15425 kPa | 800.19 ± 0.83
15450 kPa | 800.53 ± 0.83
15475 kPa | 800.87 ± 0.83
15500 kPa | 801.17 ± 0.83
15525 kPa | 801.53 ± 0.83
15550 kPa | 801.84 ± 0.83
15575 kPa | 802.17 ± 0.83
15600 kPa | 802.47 ± 0.83
15625 kPa | 802.79 ± 0.83
15650 kPa | 803.12 ± 0.83
15675 kPa | 803.42 ± 0.83
15700 kPa | 803.73 ± 0.83
15725 kPa | 804.02 ± 0.83
15750 kPa | 804.34 ± 0.83
15775 kPa | 804.65 ± 0.83
15800 kPa | 804.99 ± 0.83
15825 kPa | 805.27 ± 0.83
15850 kPa | 805.58 ± 0.83
15875 kPa | 805.91 ± 0.83
15900 kPa | 806.23 ± 0.83
15925 kPa | 806.51 ± 0.83
15950 kPa | 806.83 ± 0.83
15975 kPa | 807.09 ± 0.83
16000 kPa | 807.41 ± 0.83
16025 kPa | 807.71 ± 0.83
16050 kPa | 807.98 ± 0.83
16075 kPa | 808.29 ± 0.83
16100 kPa | 808.61 ± 0.83
16125 kPa | 808.91 ± 0.83
16150 kPa | 809.2 ± 0.83
16175 kPa | 809.5 ± 0.83
16200 kPa | 809.79 ± 0.83
16225 kPa | 810.09 ± 0.83
16250 kPa | 810.39 ± 0.83
16275 kPa | 810.69 ± 0.83
16300 kPa | 810.98 ± 0.83
16325 kPa | 811.27 ± 0.83
16350 kPa | 811.55 ± 0.83
16375 kPa | 811.82 ± 0.83
16400 kPa | 812.11 ± 0.83
16425 kPa | 812.38 ± 0.83
16450 kPa | 812.66 ± 0.83
16475 kPa | 812.9 ± 0.83
16500 kPa | 813.24 ± 0.83
16525 kPa | 813.5 ± 0.83
16550 kPa | 813.76 ± 0.83
16575 kPa | 814.03 ± 0.83
16600 kPa | 814.33 ± 0.83
16625 kPa | 814.6 ± 0.83
16650 kPa | 814.87 ± 0.83
16675 kPa | 815.12 ± 0.83
16700 kPa | 815.43 ± 0.83
16725 kPa | 815.67 ± 0.83
16750 kPa | 815.94 ± 0.83
16775 kPa | 816.22 ± 0.83
16800 kPa | 816.46 ± 0.83
16825 kPa | 816.74 ± 0.83
16850 kPa | 817 ± 0.83
16875 kPa | 817.27 ± 0.83
16900 kPa | 817.54 ± 0.83
16925 kPa | 817.8 ± 0.83
16950 kPa | 818.05 ± 0.83
16975 kPa | 818.28 ± 0.83
17000 kPa | 818.55 ± 0.83
17025 kPa | 818.81 ± 0.83
17050 kPa | 819.06 ± 0.83
17075 kPa | 819.27 ± 0.83
17100 kPa | 819.55 ± 0.83
17125 kPa | 819.79 ± 0.83
17150 kPa | 820.09 ± 0.83
17175 kPa | 820.32 ± 0.83
17200 kPa | 820.54 ± 0.83
17225 kPa | 820.77 ± 0.83
